Data from US12612409B2, “Pyrrolopyrimidines as CFTR potentiators” (Cystic Fibrosis Foundation, priority 2016, dated 2026).

Experiments:
Assay type in all cases: cell-based
[1] = target: T1, CFTR in G551D/F508del primary CF hBE cells (Homo sapiens, UniProt P13569, G551D); assay: Ussing chamber electrophysiology assay of CFTR potentiation in G551D/F508del CF bronchial epithelial cells (35° C.); settings: G551 D/F508del Ussing chamber assay at 35 degrees Celsius
T1 construct: Primary cystic fibrosis human bronchial epithelial (CF hBE) cells were expanded and cultured; endogenous in cells; host or cells: primary CF human bronchial epithelial cells, genotype G551D/F508del
Text: • SHELXTL, Version 5.1, Bruker AXS, 1997. • PLATON, A. L. Spek, J. Appl. Cryst. 2003, 36, 7-13. • MERCURY, C. F. Macrae, P. R. Edington, P. McCabe, E. Pidcock, G. P. Shields, R. Taylor, M. Towler and J. van de Streek, J. Appl. Cryst. 39, 453-457, 2006. • OLEX2, Dolomanov, O. V.; Bourhis, L. J.; Gildea, R. J.; Howard, J. A. K.; Puschmann, H., (2009). J. Appl. Cryst., 42, 339-341. • R. W. W. Hooft et al. J. Appl. Cryst. (2008). 41. 96-103. • H. D. Flack, Acta Cryst. 1983, A39, 867-881. Using Chamber Electrophysiology Assay of CFTR Potentiation in CF Bronchial Epithelial Cells
Primary cystic fibrosis human bronchial epithelial (CF hBE) cells were expanded and cultured according to published methods (Neuberger et al., Ch. 4 of Cystic Fibrosis, Methods in Molecular Biology vol. 741, pp. 39-54 (2011)). Well-differentiated cells (>30 days at air/liquid interface) on Snapwell filters (Corning Costar, cat. no. 3801) were mounted in Ussing chambers (Physiologic Instruments, Inc., San Diego, CA). […] HEPES buffered physiological saline (composition (in mM): 137 NaCl, 4 KCl, 1 MgCl2, 1.8 CaCl2), 10 HEPES Na) was used in both apical and basolateral chambers. Chambers were bubbled with air to promote mixing and the voltage was clamped to zero. Amiloride (30 uM), forskolin (10 uM), test compound (4 increasing concentrations), and CFTRinh-172 (20 uM) were added sequentially with 20-25 minutes between additions. Short-circuit currents were acquired and analyzed using LabScribe2. Test compound responses were scaled relative to responses for DMSO (0%) and the maximal response of a positive control potentiator (100%).

[2] = target: T2, CFTR in F508del/F508del primary CF hBE cells (Homo sapiens, UniProt P13569, DEL508-508); assay: Ussing chamber electrophysiology assay of CFTR potentiation in F508del/F508del CF bronchial epithelial cells (27° C.)
T2 construct: Primary cystic fibrosis human bronchial epithelial (CF hBE) cells were expanded and cultured; endogenous in cells; host or cells: primary CF human bronchial epithelial cells, genotype F508del/F508del
Method in brief: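 Short-circuit current was recorded under zero-voltage clamp across primary CF bronchial epithelia cultured >30 days at air/liquid interface, bathed apically and basolaterally in HEPES-buffered saline. Sequential additions: amiloride (30 uM), forskolin (10 uM), compound at 4 increasing levels, CFTRinh-172 (20 uM). Responses normalised between DMSO (0%) and maximal positive-control potentiator (100%).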

[3] = target: T3, recombinant F508del V470 CFTR in Fischer rat thyroid (FRT) cells (Homo sapiens, UniProt P13569, DEL508-508); assay: FRT ion flux assay of F508del CFTR potentiation; settings: FRT cells expressing F508del V470 CFTR, forskolin 20 uM, 27° C. pre-incubation
T3 construct: expressed in transfected cells
Method in brief: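 Potentiation read as YFP quench ~21 s after iodide buffer addition, as second/initial fluorescence ratio normalised between DMSO (0%) and reference potentiator (100%).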

T3 sequence (P13569 with tags, fused parts or gaps DEL508-508): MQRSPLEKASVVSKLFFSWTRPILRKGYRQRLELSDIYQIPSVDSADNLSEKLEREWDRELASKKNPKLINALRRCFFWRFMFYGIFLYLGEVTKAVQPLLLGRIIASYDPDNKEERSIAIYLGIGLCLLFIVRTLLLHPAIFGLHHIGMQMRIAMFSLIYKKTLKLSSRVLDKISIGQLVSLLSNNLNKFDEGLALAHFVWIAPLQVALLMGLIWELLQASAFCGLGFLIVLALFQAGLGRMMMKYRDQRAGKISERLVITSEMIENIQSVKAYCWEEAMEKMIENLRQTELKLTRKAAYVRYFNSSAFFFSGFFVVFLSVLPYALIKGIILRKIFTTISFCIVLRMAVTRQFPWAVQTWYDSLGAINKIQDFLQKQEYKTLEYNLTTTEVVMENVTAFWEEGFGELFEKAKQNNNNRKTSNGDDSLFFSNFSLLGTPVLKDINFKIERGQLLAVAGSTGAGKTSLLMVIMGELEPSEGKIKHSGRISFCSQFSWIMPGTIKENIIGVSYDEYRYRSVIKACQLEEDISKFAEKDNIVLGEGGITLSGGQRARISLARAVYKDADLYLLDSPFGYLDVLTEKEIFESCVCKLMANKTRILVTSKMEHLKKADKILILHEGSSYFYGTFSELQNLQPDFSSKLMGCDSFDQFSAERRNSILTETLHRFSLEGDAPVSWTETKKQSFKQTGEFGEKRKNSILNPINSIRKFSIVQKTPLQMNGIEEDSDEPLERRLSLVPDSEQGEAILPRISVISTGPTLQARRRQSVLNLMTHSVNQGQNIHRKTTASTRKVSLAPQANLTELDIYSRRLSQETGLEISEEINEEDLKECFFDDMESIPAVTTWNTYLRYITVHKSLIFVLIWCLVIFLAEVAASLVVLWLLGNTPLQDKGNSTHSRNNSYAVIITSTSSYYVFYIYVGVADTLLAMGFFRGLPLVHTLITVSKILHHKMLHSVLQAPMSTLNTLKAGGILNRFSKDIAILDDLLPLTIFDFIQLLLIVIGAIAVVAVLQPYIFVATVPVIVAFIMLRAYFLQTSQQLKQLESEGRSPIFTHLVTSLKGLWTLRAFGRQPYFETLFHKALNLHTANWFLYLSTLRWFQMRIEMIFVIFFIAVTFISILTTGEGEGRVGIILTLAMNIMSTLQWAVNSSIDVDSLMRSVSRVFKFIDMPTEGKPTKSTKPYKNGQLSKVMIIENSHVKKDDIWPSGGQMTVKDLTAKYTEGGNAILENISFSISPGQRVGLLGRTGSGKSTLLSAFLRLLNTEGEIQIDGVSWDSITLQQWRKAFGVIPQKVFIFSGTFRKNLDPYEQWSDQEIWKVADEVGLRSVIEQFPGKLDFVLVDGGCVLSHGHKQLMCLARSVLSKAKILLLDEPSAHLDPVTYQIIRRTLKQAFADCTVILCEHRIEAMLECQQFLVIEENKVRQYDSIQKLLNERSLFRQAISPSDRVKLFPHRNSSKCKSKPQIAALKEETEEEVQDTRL
T2 sequence (P13569 with tags, fused parts or gaps DEL508-508): as above
T1 sequence (P13569 whole entry F508del/G551D): as the sequence (P13569 with tags, fused parts or gaps DEL508-508) above, with G550D counted along it

SMILES | EC50 [1] [nM] | EC50 [2] [nM] | EC50 [3] [nM]
CC[C@@H](c1cn(-c2ccc(F)cc2F)nn1)n1cc(-c2cnc(C(F)(F)F)nc2)c2c(N)ncnc21 (single isomer, unassigned) [Example 161] | 303 | 10.9 | 8.6
CC[C@H](c1cn(-c2ccc(F)cc2F)nn1)n1cc(-c2cnc(C(F)(F)F)nc2)c2c(N)ncnc21 (single isomer, unassigned) [Example 162] | 8450 | 339 | 363
COc1ncccc1-c1cn(Cc2cnn(-c3ccc(C(F)F)cc3)c2)c2ncnc(N)c12 [Example 270, 7-({1-[4-(Difluoromethyl)phenyl]-1H-pyrazol-4-yl}methyl)-5-(2-methoxypyridin-3-yl)-7H-pyrrolo[2,3-d]pyrimidin-4-amine] |  | 47.7 | 451
COc1ncccc1-c1cn(Cc2nnc(-c3ccccc3)[nH]2)c2ncnc(N)c12 [Example 272, 5-(2-Methoxypyridin-3-yl)-7-[(5-phenyl-4H-1,2,4-triazol-3-yl)methyl]-7H-pyrrolo[2,3-d]pyrimidin-4-amine] |  | 833 | 398
COc1ccc(-c2c(C)n(Cc3cn(-c4ccc(F)cc4F)nn3)c3ncnc(N)c23)cn1 [Example 278, 7-{[1-(2,4-Difluorophenyl)-1H-1,2,3-triazol-4-yl]methyl}-5-(6-methoxypyridin-3-yl)-6-methyl-7H-pyrrolo[2,3-d]pyrimidin-4-amine] |  | 152 | 219
Nc1ncnc2c1c(-c1ccc(Cl)cc1)cn2Cc1cc(C2CC2)no1 [Example 280, 5-(4-Chlorophenyl)-7-[(3-cyclopropyl-1,2-oxazol-5-yl)methyl]-7H-pyrrolo[2,3-d]pyrimidin-4-amine] |  | 127 | 2670
Nc1ncnc2c1c(-c1ccc(Cl)cc1)cn2Cc1nc(-c2ccccc2)c[nH]1 [Example 282, 5-(4-Chlorophenyl)-7-[(4-phenyl-1H-imidazol-2-yl)methyl]-7H-pyrrolo[2,3-d]pyrimidin-4-amine] |  | 216 | 909
CC(C)c1cc(Cn2cc(-c3ccc(Cl)cc3)c3c(N)ncnc32)on1 [Example 283, 5-(4-Chlorophenyl)-7-{[3-(propan-2-yl)-1,2-oxazol-5-yl]methyl}-7H-pyrrolo[2,3-d]pyrimidin-4-amine] |  | 111 | 659
Nc1ncnc2c1c(-c1ccc(Cl)cc1)cn2Cc1ncc(-c2ccccc2F)[nH]1 [Example 285, 5-(4-Chlorophenyl)-7-{[5-(2-fluorophenyl)-1H-imidazol-2-yl]methyl}-7H-pyrrolo[2,3-d]pyrimidin-4-amine] |  | 3500 | 3690
COc1ncccc1-c1cn(Cc2cnn(-c3c(F)cccc3F)c2)c2ncnc(N)c12 [Example 286, 7-{[1-(2,6-Difluorophenyl)-1H-pyrazol-4-yl]methyl}-5-(2-methoxypyridin-3-yl)-7H-pyrrolo[2,3-d]pyrimidin-4-amine] |  | 176 | 81
CC(c1cn(-c2ncccc2F)nn1)n1cc(-c2ccc(Cl)cc2)c2c(N)ncnc21 (stereo not shown) [Example 287, 5-(4-Chlorophenyl)-7-{1-[1-(3-fluoropyridin-2-yl)-1H-1,2,3-triazol-4-yl]ethyl}-7H-pyrrolo[2,3-d]pyrimidin-4-amine] |  | 254 | 112
CC(c1cn(-c2ncccc2F)nn1)n1ccc2c(Nc3ccc(OC4CC4)cc3)ncnc21 (stereo not shown) [Example 288, [4-(Cyclopropyloxy)phenyl]-7-{1-[1-(3-fluoropyridin-2-yl)-1H-1,2,3-triazol-4-yl]ethyl}-7H-pyrrolo[2,3-d]pyrimidin-4-amine] |  | 39.6 | 90.6
Nc1ncnc2c1c(C1CC1)cn2Cc1cn(-c2ccccc2F)nn1 [Example 289, 5-Cyclopropyl-7-{[1-(2-fluorophenyl)-1H-1,2,3-triazol-4-yl]methyl}-7H-pyrrolo[2,3-d]pyrimidin-4-amine] |  | 342 | 142
COCC1CC1c1cn(Cc2cn(-c3ccccc3F)nn2)c2ncnc(N)c12 (stereo not shown) [Example 290, 7-{[1-(2-Fluorophenyl)-1H-1,2,3-triazol-4-yl]methyl}-5-[2-(methoxymethyl)cyclopropyl]-7H-pyrrolo[2,3-d]pyrimidin-4-amine] |  | 997 | 669
Nc1ncnc2c1c(C1CC1)cn2C1(c2cn(-c3ccccc3F)nn2)CC1 [Example 295, 5-Cyclopropyl-7-{1-[1-(2-fluorophenyl)-1H-1,2,3-triazol-4-yl]cyclopropyl}-7H-pyrrolo[2,3-d]pyrimidin-4-amine] |  | 389 | 185
COc1nccnc1-c1cn(Cc2cn(-c3ccccc3F)nn2)c2ncnc(N)c12 [Example 296, 7-{[1-(2-Fluorophenyl)-1H-1,2,3-triazol-4-yl]methyl}-5-(3-methoxypyrazin-2-yl)-7H-pyrrolo[2,3-d]pyrimidin-4-amine] |  | 50.3 | 124
COc1ncccc1-c1cn(C(c2cn(-c3ccccc3F)nn2)C2CC2)c2ncnc(N)c12 (stereo not shown) [Example 297, 7-{Cyclopropyl[1-(2-fluorophenyl)-1H-1,2,3-triazol-4-yl]methyl}-5-(2-methoxypyridin-3-yl)-7H-pyrrolo[2,3-d]pyrimidin-4-amine] |  | 40.1 | 57.5
COc1ncccc1-c1cn(C2(c3cn(-c4ccccc4F)nn3)CC2)c2ncnc(N)c12 [Example 298, 7-{1-[1-(2-Fluorophenyl)-1H-1,2,3-triazol-4-yl]cyclopropyl}-5-(2-methoxypyridin-3-yl)-7H-pyrrolo[2,3-d]pyrimidin-4-amine] |  | 245 | 180
Nc1ncnc2c1c(-c1cccc3ncoc13)cn2Cc1cn(-c2ccccc2F)nn1 [Example 299, 5-(1,3-Benzoxazol-7-yl)-7-{[1-(2-fluorophenyl)-1H-1,2,3-triazol-4-yl]methyl}-7H-pyrrolo[2,3-d]pyrimidin-4-amine] |  | 273 | 235
Nc1ncnc2c1c(-c1ncco1)cn2Cc1cn(-c2ccccc2F)nn1 [Example 301, 7-{[1-(2-Fluorophenyl)-1H-1,2,3-triazol-4-yl]methyl}-5-(1,3-oxazol-2-yl)-7H-pyrrolo[2,3-d]pyrimidin-4-amine] |  | 461 | 360
CCC(c1cn(-c2ccccc2F)nn1)n1cc(-c2cncnc2OC)c2c(N)nc(C)nc21 (stereo not shown) [Example 302, 7-{1-[1-(2-Fluorophenyl)-1H-1,2,3-triazol-4-yl]propyl}-5-(4-methoxypyrimidin-5-yl)-2-methyl-7H-pyrrolo[2,3-d]pyrimidin-4-amine] |  | 297 | 232
COCC(c1cn(-c2ccccc2F)nn1)n1cc(-c2cccnc2OC)c2c(N)ncnc21 (stereo not shown) [Example 314, 7-{1-[1-(2-Fluorophenyl)-1H-1,2,3-triazol-4-yl]-2-methoxyethyl}-5-(2-methoxypyridin-3-yl)-7H-pyrrolo[2,3-d]pyrimidin-4-amine] |  | 358 | 230
COc1ncncc1-c1cn(C(c2cn(-c3ccccc3F)nn2)C2COC2)c2ncnc(N)c12 (stereo not shown) [Example 315, 7-{[1-(2-Fluorophenyl)-1H-1,2,3-triazol-4-yl](oxetan-3-yl)methyl}-5-(4-methoxypyrimidin-5-yl)-7H-pyrrolo[2,3-d]pyrimidin-4-amine] |  | 2930 | 933
Nc1ncnc2c1c(C1CC1)cn2Cc1cnn(-c2ccccc2F)c1 [Example 317, 5-Cyclopropyl-7-{[1-(2-fluorophenyl)-1H-pyrazol-4-yl]methyl}-7H-pyrrolo[2,3-d]pyrimidin-4-amine] |  | 87 | 129
CNc1ncnc2c1c(-c1ccc(Cl)cc1)cn2C(C)c1cn(-c2ccccc2F)nn1 (stereo not shown) [Example 318, 5-(4-Chlorophenyl)-7-{1-[1-(2-fluorophenyl)-1H-1,2,3-triazol-4-yl]ethyl}-N-methyl-7H-pyrrolo[2,3-d]pyrimidin-4-amine] |  | 397 | 2990
